{
  "source": "patent US20230097253A1",
  "about": "“NOVEL QUINAZOLINE COMPOUND AS THERAPEUTIC AGENT FOR METABOLIC DISORDERS” (BIOWAY., INC, priority 2020, published 2023)",
  "key": {"[1]": {"assay": "Pharmacokinetic parameters after oral administration", "type": "in vivo, Sprague Dwaley (SD) rats", "settings": "male SD rats, 10 mg/kg, FIG. 16", "description": "An experiment was performed to measure the pharmacokinetic parameters of BW-3290 using three male Sprague Dwaley (SD) rats. As for BW-3290, a formulation with a composition of 95% water containing 5% DMSO and 20% HPbCD was used, and was orally administered at a concentration of 10 mg/kg. Blood samples were collected from the jugular vein at time points of 0.25, 0.5, 1, 4, 8, 10, 12, and 24 hours. The blood samples collected were centrifuged for 15 minutes at 4° C. at 2,500×g to secure plasma. Bioanalysis for the measurement of pharmacokinetic parameters was analyzed by LC-MS/MS."}, "[2]": {"test_system": "steatosis-induced Huh7 cells", "assay": "Quantitative analysis of mRNA of lipogenesis-related factors (qRT-PCR)", "type": "cell-based", "settings": "250 μM PA, 0.5 μM, 24 hours, compared to the control group, FIG. 9-B", "description": "(§1) To induce steatosis in Huh-7 cells in each well except for control cells, the Huh-7 cells were treated with PA bound to 2% BSA at a concentration of 250 μM except for the control, and the control cells were pretreated with 2% BSA without FA.\nThe cells in each well were treated with the compound of Chemical Formula 2 according to the present invention 0.5 μM and then cultured for 24 hours. The control cells and PA treated cells were treated with DMSO. All media were aspirated and the cells were gently washed 3 times with cold PBS.\nAdditionally, the total RNA was extracted using the RNeasy RNA isolation kit (Qiagen, Hilden, Germany).\nAdditionally, 10 μL of […] per mL of a cell lysis solution was additionally prepared.\nAdditionally, the cells were washed twice with cold PBS and 350 μL of RNA lysis buffer was added thereto.\nAdditionally, 70% EtOH was added to the lysate in an equal volume, mixed by pipetting, transferred to a spin column, and centrifuged at 8,000×g for 15 seconds.\nAdditionally, the flow-through solution was removed and 700 μL of a wash solution was added to the spin column, centrifuged at 8,000×g, and the flow-through solution was removed. […]\nAdditionally, RNA concentration was measured at OD 260 nm using the Nanophotometer N60 (Implen, Munich, Germany) […]"}, "[3]": {"test_system": "steatosis-induced Huh7 cells", "assay": "Protein expression for verification of multiple mode regulator, with and without AMPK inhibitor (western blot)", "type": "cell-based", "description": "as §1\n[…] The control cells and PA treated cells were treated with DMSO. All media were aspirated and the cells were gently washed 3 times with cold PBS.\nA cold lysis buffer containing 150 mM sodium chloride (NaCl), 5 mM ethylenediaminetetraacetic acid (EDTA), pH 8.0, […] 4-(2-hydroxyethyl)-1-piperazineethanesulfonic acid (HEPES), 1% nonylphenoxypolyethoxylethanol (NP-40), 2 μg/mL aprotinin, 1 μM pepstatin A, 10 μM leupeptin, 1 mM sodium fluoride (NaF), 0.2 mM sodium orthovanadate ([…]), and 1 μM phenylmethylsulfonyl fluoride (PMSF) was added thereto.\nA whole cell lysate was collected and gently pipetted at least 10 times to ensure complete lysis. The sample was incubated on ice for 20 minutes and centrifuged 4° C. at 13,000 rpm, for 20 minutes. The supernatant was collected, 5× sodium dodecyl sulfate (SDS) sample buffer containing 50 mM Tris-CI (pH 6.8), 2% SDS, 0.1% bromopheol blue, and 10% glycerol was added to the sample, and boiled at 95° C. for 5 minutes.\nThe wells of 10% SDS-polyacrylamide gel electrophoresis (SDS-PAGE) were loaded with the same amount of a protein along with the molecular weight marker. The gel was electrophoresed at 100 V for 30 minutes in an electrophoresis chamber (Bio-Rad Laboratories, Hercules, Calif., USA).\nA polyvinylidene fluoride (PVDF) membrane (MilliporeSigma, Burlington, Mass., USA) was activated with methanol (MeOH) for 1 minute and washed with a transfer buffer containing 25 mM Tris, 190 mM glycine, and 20% MeOH. The gel was placed in the transfer buffer for 10 minutes.\nThe transfer sandwich (in the order of paper, gel, membrane, and paper) was assembled and it was checked whether no air bubbles were trapped in the transfer sandwich. […]\nImages were acquired using an ImageQuant LAS 3000 (Fujifilm, Tokyo, Japan). Data were analyzed."}},
  "data": [
    {"smiles": "CC(C)C(Nc1ncnc2nc[nH]c12)c1nc2cccc(Cl)c2c(=O)n1-c1ccccc1", "note": "(centres unmarked) [BW-3290, 2-(1-((7H-purin-6-yl)amino)-2-methylpropyl)-5-chloro-3-phenylquinazolin-4(3H)-one]", "values": [
      {"measurement": "AUClast", "setting": "[1]", "result": "excellent"},
      {"measurement": "Cmax", "setting": "[1]", "result": "excellent"},
      {"measurement": "concentration after 12 hours after absorption", "setting": "[1]; plasma", "result": "maintained to some extent"},
      {"measurement": "gene expression (mRNA) of FAS", "setting": "[2]", "result": "reduced"},
      {"measurement": "gene expression (mRNA) of SREBP-1c", "setting": "[2]", "result": "reduced"},
      {"measurement": "activity of SIRT1 and AMPK (p-AMPK, p-ACC) when AMPK activity is inhibited", "setting": "[3]; 250 μM PA, 10 μM compound C (AMPK inhibitor), 10 and 20 μM BW-3290, 24 hours, FIG. 15", "result": "increases the activity of SIRT1 and AMPK"},
      {"measurement": "AMPK protein expression level", "setting": "[3]; 0.5, 2.5, 10 μM, FIG. 13", "result": "increase in a concentration-dependent manner"},
      {"measurement": "SIRT1 protein expression level", "setting": "[3]; 0.5, 2.5, 10 μM, FIG. 13", "result": "increase in a concentration-dependent manner"}
    ]}
  ]
}
